The assay has as its system Hh signaling in Sufu−/− mouse embryonic fibroblasts. The assay is described as follows: RT-qPCR of Gli1 in Sufu−/− MEFs (epistasis study). The class given is cell-based. An excerpt:
Epistasis studies were next performed to determine where in the hedgehog pathway CK2 acts. The effect of TBB was examined: (i) in NIH 3T3s stimulated with SAG, a SMO agonist, (ii) in Sufu−/− mouse embryonic fibroblasts (MEF), and (iii) in NIH 3T3 cells overexpressing GLI2 (FIG. 3d-3f).
Sufu^−/− MEFs (conditional deletion of exons 4-8) were kindly provided by Pao-Tien Chang (UCSF). SAG (S7779), GDC-0449 (Vismodegib, S1082) and CX-4945 (Silmitasertib, S2248) was purchased from SelleckChem.com. TBB was purchased from EMD (218697). Shh-N conditional medium was made using a HEK 293 cell line that stably secretes ShhN as previously described. Myc-GL12-DN (17649, pCS2-MT-GLI2-deltaN) plasmid was purchased from Addgene (Cambridge, Mass., USA). […]
NIH3T3s or SUFU−/− MEFs were plated in 6 well plates at 400,000 cells/well in 10% FBS media constituted of DMEM (Invitrogen11960-069) supplemented with 10% FBS (Hyclone Labs SH30070.02), pen/strep (Life Technologies 15140-122), sodium pyruvate (Invitrogen 11360-070) and glutamax (Invitrogen 35050-061). […] RNA was quantified on a nanodrop spectrophotometer (nanoddrop technologies ND-2000C). Transcript quantification was performed using a TaqMan RNA-to-Ct 1-Step Kit (Life technologies, 4392656) and the Applied Biosystems 7500 RT-PCR system as per the manufacturer's instructions. […]
Background: Real-time PCR tracks product formation cycle by cycle.

“Also recorded” adds a separate entry of the source.

`Brc1c(Br)c(Br)c2[nH]nnc2c1Br` [TBB, 4,5,6,7-tetrabromo-2H-benzotriazole]: the “Gli1 mRNA / Gli transcript levels” value is reported as “substantially decreased; also recorded: dose dependent loss of Gli1 expression”.

Values taken from patent publication US10213449B2, “Compositions and methods for treating medulloblastoma” (The Board of Trustees of the Leland Stanford Junior …, priority 2016, dated 2019).
